Data on 1 compound can be found in publication PMC7724566, “Prospects for Clinical Development of Stat5 Inhibitor IST5-002: High Transcriptomic Specificity in Prostate Cancer and Low Toxicity In Vivo” (Cancers, 2020).

One test deals with panel of 54 kinases. In words: Cell-free kinase panels, overall. Format: biochemical. The conditions noted are these: 1 µM. The source says:
Given that IST5 suppresses phosphorylation of Stat5 in PC cells, it is possible that IST5 inhibits the kinase(s) responsible for Stat5 phosphorylation and activation in PC cells. To evaluate if IST5 affects kinase activity in cancer cells, we tested kinase inhibitory activity of IST5 in two custom-tailored panels including 54 relevant kinases (Table 1), including Jak1, Jak2, Jak3, Tyk2, Abl1, Abl2, Lck, Fyn, Src and TrkB/C. In addition, we further tested if IST5 inhibits tyrosine phosphorylation of Jak1, Jak2, Jak3 or Tyk2 using a cell-based assay (Figure 5D), where phosphorylation of the kinase is indicative of enzymatic kinase activity. DU145 and CWR22Rv1 cells were treated with IST5 (6 µM) for 6 h followed by immunoprecipitation of Jak1, Jak2, Jak3 and Tyk2 and immunoblotting with anti-phospho-tyrosine antibody. […]
For Jak1, Jak2, Jak3 and Tyk2, a radiometric filtration binding assay was conducted by Reaction Biologicals (Malvern, PA, USA) (Table 1). […] For evaluation of the activity of the other kinases, the Kinase Seeker Technology was utilized (Luceome Biotechnologies, Tucson, AZ, USA), which is a luminescence-based cell-free assay. […] The competitive displacement of the probe by an inhibitor is measured by a change in luminescence signal. […]

A further test deals with MCM10. In words: qRT-PCR mRNA level. Format: cell-based, human. To be noted: CWR22Pc cells, 6 µM vs. vehicle, 3 days. From the text: (§1) Specifically, significant changes were evident in 21 of 203 genes associated with DNA replication and nuclear division (Figure 3B). Specifically, genes associated with minichromosome maintenance family (MCM2, MCM3, MCM4, MCM5, MCM10) were regulated by both IST5 and shStat5 in PC cells, and were associated with DNA replication and DNA replication initiation process as indicated by the functional module analysis (Figure 3). In addition, suppression of the top genes regulated by IST5 and genetic knockdown of Stat5 was confirmed by quantitative real-time polymerase chain reaction (qRT-PCR) in CWR22Pc cells after 3 days of Stat5 inhibition (Figure 3C). It is important to note that the gene expression changes induced by both shStat5 and IST5 in PC cells described here represent later changes in gene expression networks and the early genes (at 24 h) regulated by shStat5/IST5 might be different.
(§2) Figure 3 Pathway enrichment analysis of genes regulated similarly by IST vs. genetic knockdown of Stat5 in prostate cancer cells. […] (C), mRNA levels of MCM10 and BRCA2 were reduced, determined by quantitative real-time polymerase chain reaction (qRT-PCR), in CWR22Pc cells upon genetic knockdown of Stat5 by lentiviral expression of shStat5 vs. shCtrl or by treatment with IST5 (6 µM) vs. vehicle for 3 days. […]

The subject of another test is BRCA2. In words: qRT-PCR mRNA level. Format: cell-based, human. To be noted: CWR22Pc cells, 6 µM vs. vehicle, 3 days.
Description: as §1, §2
(In general: Quantitative PCR measures a nucleic acid by following its amplification.)

With `O=P(O)(O)OCC1OC(n2cnc3c(NCc4ccccc4)ncnc32)C(O)C1O` (stereo not drawn) [IST5], the “inhibitory activity against the kinases of Table 1” value with panel of 54 kinases is reported as “no significant inhibitory activity”. Also, the “mRNA level of MCM10” value in the test with MCM10 is “reduced”. Also, the “mRNA level of BRCA2” value with BRCA2 is recorded as “reduced”.
